Source: patent US20260183301A1, “TREATING DISEASES AND DISORDERS WITH IRAK4-MODIFYING COMPOUNDS” (Curis, Inc., priority 2022, published 2026)

Assay: Phase I dose escalation trial in NHL: safety and tolerance (adverse effects, DLT)
[1] = 200 mg BID, N = 5, [E] not defined

Description: Seven dosing cohorts included 50 and 100 mg QD, and 50, 100, 200, 300, or 400 mg BID of daily continuous oral monotherapy in 21-Day cycles. Objective included safety and tolerance (primary), pk/pd and early efficacy (secondary), and biomarker correlations (exploratory). 31 patients with resistant or refractory, advanced NHL have been enrolled.

## Cc1cc(-c2nc(C(=O)Nc3cc4oc(N5CCOCC5)nc4nc3N3CC[C@@H](O)C3)co2)ccn1 [Compound 1, emavusertib]
200 mg BID (n = 5)
  Back pain, All Grades: 20%
  Back pain, Grade 3 or 4: 0%
  Constipation, All Grades: 20%
  Constipation, Grade 3 or 4: 0%
  Cough, All Grades: 40%
  Cough, Grade 3 or 4: 0%
  Dehydration, All Grades: 20%
  Dehydration, Grade 3 or 4: 0%
  Diarrhea, All Grades: 20%
  Diarrhea, Grade 3 or 4: 0%
  Dizziness, All Grades: 0%
  Dizziness, Grade 3 or 4: 0%
  Dyspnoe, All Grades: 20%
  Dyspnoe, Grade 3 or 4: 0%
  Fatigue, All Grades: 40%
  Fatigue, Grade 3 or 4: 0%
  Headache, All Grades: 20%
  Headache, Grade 3 or 4: 0%
  Insomnia, All Grades: 20%
  Insomnia, Grade 3 or 4: 0%
  Muscle weakness, All Grades: 20%
  Muscle weakness, Grade 3 or 4: 20%
  Myalgia, All Grades: 40%
  Myalgia, Grade 3 or 4: 0%
  Nausea, All Grades: 20%
  Nausea, Grade 3 or 4: 0%
  Oedema, All Grades: 25%
  Oedema, Grade 3 or 4: 0%
  Peripheral sensory neuropathy, All Grades: 0%
  Peripheral sensory neuropathy, Grade 3 or 4: 0%
  Rhabdomyolysis, All Grades: 0%
  Rhabdomyolysis, Grade 3 or 4: 0%
  Upper respiratory infection, All Grades: 40%
  Upper respiratory infection, Grade 3 or 4: 20%
  Vomiting, All Grades: 20%
  Vomiting, Grade 3 or 4: 0%
200 mg BID, N = 5
  Anemia, All Grades: 1 (20.0) n (%)
  Anemia, Grade 3 or Higher: 0 n (%)
  Neutropenia, All Grades: 2 (40.0) n (%)
  Neutropenia, Grade 3 or Higher: 2 (40.0) n (%)
  Thrombocytopenia, All Grades: 0 n (%)
  Thrombocytopenia, Grade 3 or Higher: 0 n (%)
[1]
  Anemia, All Grades [E]: [1]
  Neutropenia, All Grades [E]: [3]
  Neutropenia, Grade 3 or Higher [E]: [2]
300 mg BID (n = 6)
  Back pain, All Grades: 0%
  Back pain, Grade 3 or 4: 0%
  Constipation, All Grades: 0%
  Constipation, Grade 3 or 4: 0%
  Cough, All Grades: 0%
  Cough, Grade 3 or 4: 0%
  Dehydration, All Grades: 0%
  Dehydration, Grade 3 or 4: 0%
  Diarrhea, All Grades: 40%
  Diarrhea, Grade 3 or 4: 0%
  Dizziness, All Grades: 0%
  Dizziness, Grade 3 or 4: 0%
  Dyspnoe, All Grades: 0%
  Dyspnoe, Grade 3 or 4: 0%
  Fatigue, All Grades: 0%
  Fatigue, Grade 3 or 4: 0%
  Headache, All Grades: 0%
  Headache, Grade 3 or 4: 0%
  Insomnia, All Grades: 0%
  Insomnia, Grade 3 or 4: 0%
  Muscle weakness, All Grades: 0%
  Muscle weakness, Grade 3 or 4: 0%
  Myalgia, All Grades: 0%
  Myalgia, Grade 3 or 4: 0%
  Nausea, All Grades: 17%
  Nausea, Grade 3 or 4: 0%
  Oedema, All Grades: 0%
  Oedema, Grade 3 or 4: 0%
  Peripheral sensory neuropathy, All Grades: 0%
  Peripheral sensory neuropathy, Grade 3 or 4: 0%
  Rhabdomyolysis, All Grades: 0%
